Data on 16 compounds can be found in US6080758A, “Benzenesulfonamide derivatives as bradykinin antagonists” (Fournier Industrie et Sante, priority 1995, dated 2000).

Each structure is given as a SMILES string.

In the assay the target is T1, bradykinin B2 receptor (Cavia porcellus, UniProt O70526).
T1 construct: Ileum segments are isolated from male guinea-pigs; tissue Iffa Credo, l'Arbresle, France (supplier of the animals); host or cells: ileum membranes of male Dunkin-Hartley guinea-pigs
T1 sequence (O70526 1-372): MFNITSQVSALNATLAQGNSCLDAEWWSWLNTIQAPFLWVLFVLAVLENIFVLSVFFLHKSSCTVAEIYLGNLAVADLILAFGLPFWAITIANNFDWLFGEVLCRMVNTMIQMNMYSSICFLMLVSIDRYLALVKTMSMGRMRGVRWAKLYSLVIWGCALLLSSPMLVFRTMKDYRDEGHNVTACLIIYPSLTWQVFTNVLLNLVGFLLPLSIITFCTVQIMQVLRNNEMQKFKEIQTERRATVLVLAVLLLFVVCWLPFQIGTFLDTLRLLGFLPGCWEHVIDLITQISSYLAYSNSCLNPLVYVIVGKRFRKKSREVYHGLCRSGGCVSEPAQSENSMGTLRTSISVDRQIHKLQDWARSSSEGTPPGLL
Nature of the assay: [3H]-bradykinin binding to guinea-pig ileum membranes. As to conditions: test compound 10^-6 M, [3H]-bradykinin 120 pM, 90 min at 20° C., read-out: Activity (%): percentage inhibition of the binding of [3H]-bradykinin. The procedure:
We used the following pharmacological test: Ileum segments are isolated from male guinea-pigs of the Dunkin-Hartley strain (Iffa Credo, l'Arbresle, France) and ground in the following TES buffer: TES 25 mM, 1,10-phenanthroline 1 mM (pH 6.8), bacitracin 140 μg/ml, BSA 1 g/l. The membranes are then isolated by centrifugation (18,000 rpm; 20 min; 4° C.). The binding studies are carried out in the TES buffer using [^3 H]-bradykinin (120 pM) and 50 μg of membrane protein per test (final volume 500 μl) with an equilibrium time of 90 min at 20° C. The percentage inhibition of the binding of [^3 H]-bradykinin is then determined in the presence of one of the test compounds according to the invention at a concentration of 10^-6 M.
The results obtained (indicated as "activity") from these tests are collated in Table I below with reference to the Examples given in the description.
With `Cc1ccc2cccc(OCc3c(Cl)ccc(S(=O)(=O)N4CCC(O)C4)c3Cl)c2n1` (stereo not shown) [Example 14, 3-Hydroxy-1-[[3-[(2-methylquinolin-8-yl)oxymethyl]-2,4-dichlorophenyl]-sulfonyl]pyrrolidine], the inhibition (commonly the change of the read-out against control, counted positive when it falls) at 1 µM is 94%.

Consider `Cc1ccc2cccc(OCc3c(Cl)ccc(S(=O)(=O)N4CCCC4)c3Cl)c2n1` [Example 16, 1-[[3-[(2-Methylquinolin-8-yl)oxymethyl]-2,4-dichlorophenyl]sulfonyl]-pyrrolidine], for which the inhibition at 1 µM was determined as 90.1%.

For the compound `CC(=O)NC1CCN(S(=O)(=O)c2ccc(Cl)c(COc3cccc4ccc(C)nc34)c2Cl)C1` (stereo not shown) [Example 13, 3-[(1-Oxoethyl)amino]-1-[[3-[(2-methylquinolin-8-yl)oxymethyl]-2,4-dichlorophenyl]sulfonyl]pyrrolidine], the inhibition at 1 µM is 98.6%.

Regarding `CCNC(=O)[C@@H]1CCCN1S(=O)(=O)c1ccc(Cl)c(COc2cccc3ccc(C)nc23)c1Cl` [Example 12, 1-[[3-[(2-Methylquinolin-8-yl)oxymethyl]-2,4-dichlorophenyl]sulfonyl]-N-ethyl-2-(S)-pyrrolidinecarboxamide], the inhibition at 1 µM amounted to 98.5%.

As for `Cc1ccc2cccc(OCc3c(Cl)ccc(S(=O)(=O)N4CCCC4C(=O)NCCCO)c3Cl)c2n1` (stereo not shown) [Example 6], the inhibition at 1 µM was 90.9%.

As for `Cc1ccc2cccc(OCc3c(Cl)ccc(S(=O)(=O)N4CCCC4C(=O)NCCCCCO)c3Cl)c2n1` (stereo not shown) [Example 7, 1-[[3-[(2-Methylquinolin-8-yl)oxymethyl]-2,4-dichlorophenyl]sulfonyl]-N-[5-hydroxypentyl]-2-pyrrolidinecarboxamide], the inhibition at 1 µM worked out at 97.8%.

Consider `COCCNC(=O)C1CCCN1S(=O)(=O)c1ccc(Cl)c(COc2cccc3ccc(C)nc23)c1Cl` (stereo not shown) [Example 4, 1-[[3-[(2-Methylquinolin-8-yl)oxymethyl]-2,4-dichlorophenyl]sulfonyl]-N-[2-methoxyethyl]-2-pyrrolidinecarboxamide], for which the inhibition at 1 µM was found to be 92.6%.

`Cc1ccc2cccc(OCc3c(Cl)ccc(S(=O)(=O)N4CCCC4C(=O)NCCN(C)C)c3Cl)c2n1` (stereo not shown) [Example 8, 1-[[3-[(2-Methylquinolin-8-yl)oxymethyl]-2,4-dichlorophenyl]sulfonyl]-N-[2-dimethylaminoethyl]-2-pyrrolidinecarboxamide Dihydrochioride]: the inhibition at 1 µM was found to be 95.5%.

Regarding `Cc1ccc2cccc(OCc3c(Cl)ccc(S(=O)(=O)N4CCCC4C(=O)NCCCN)c3Cl)c2n1` (stereo not shown) [Example 9, 1-[[3-[(2-Methylquinolin-8-yl)oxymethyl]-2,4-dichlorophenyl]sulfonyl]-N-[3-aminopropyl]-2-pyrrolidinecarboxamide], the inhibition at 1 µM was 97.6%.

Turning to `Cc1ccc2cccc(OCc3c(Cl)ccc(S(=O)(=O)N4CCSC4)c3Cl)c2n1` [Example 15, 3-[[3-[(2-Methylquinolin-8-yl)oxymethyl]-2,4-dichlorophenyl]sulfonyl]-thiazolidine], the inhibition at 1 µM was found to be 94.9%.

On to `COC(=O)C1CCCN1S(=O)(=O)c1ccc(Cl)c(COc2cccc3ccc(C)nc23)c1Cl` (racemic) [Example 1, N-[[3-[(2-Methylquinolin-8-yl)oxymethyl]-2,4-dichlorophenyl]sulfonyl]-D,L-proline Methyl Ester], for which the inhibition at 1 µM stood at 97.8%.

Consider `Cc1ccc2cccc(OCc3c(Cl)ccc(S(=O)(=O)N4CCCC4C(=O)NCCO)c3Cl)c2n1` (stereo not shown) [Example 5, 1-[[3-[(2-Methylquinolin-8-yl)oxymethyl]-2,4-dichlorophenyl]sulfonyl]-N-[2-hydroxyethyl]-2-pyrrolidinecarboxamide], for which the inhibition at 1 µM amounted to 90.1%.

For `Cc1ccc2cccc(OCc3c(Cl)ccc(S(=O)(=O)n4cccc4)c3Cl)c2n1` [Example 17, 1-[[3-[(2-Methylquinolin-8-yl)oxymethyl]-2,4-dichlorophenyl]sulfonyl]pyrrole], the inhibition at 1 µM amounted to 93.8%.

As for `COC(=O)[C@@H]1CCCN1S(=O)(=O)c1ccc(Cl)c(COc2cccc3ccc(C)nc23)c1Cl` [Example 2, N-[[3-[(2-Methylquinolin-8-yl)oxymethyl]-2,4-dichlorophenyl]sulfonyl]-L-proline Methyl Ester], the inhibition at 1 µM was 98.6%.

Take `Cc1ccc2cccc(OCc3c(Cl)ccc(S(=O)(=O)N4CCCC4C(=O)OCCCN(C)C)c3Cl)c2n1` (racemic) [Example 11, N-[[3-[(2-Methylquinolin-8-yl)oxymethyl]-2,4-dichlorophenyl]sulfonyl]-D,L-proline 3-(dimethylamino)propyl Ester]: the inhibition at 1 µM is 76.9%.

On to `Cc1ccc2cccc(OCc3c(Cl)ccc(S(=O)(=O)N4CCCC4C(=O)NCc4ccccc4)c3Cl)c2n1` (stereo not shown) [Example 10, 1-[[3-[(2-Methylquinolin-8-yl)oxymethyl]-2,4-dichlorophenyl]sulfonyl]-N-[phenylmethyl]-2-pyrrolidinecarboxamide], for which the inhibition at 1 µM came out at 96.4%.
